Laboratory results reported in patent US6838450B2, “Drug complex” (Daiichi Pharmaceutical Co., LTD, priority 1996, dated 2005).
Where a name gives a salt, the structure may show the parent alone. Peptide text beside a SMILES is read from it.

How the values were obtained:
[1] = system: mouse fibrosarcoma Meth A cells; assay: Antitumor activity, Meth A tumor-bearing mice, single administration; assay type: in vivo; settings: for antitumor activity (in words) / effective dose-range: single administration, compared to the drug compound, per se; for Inhibition rate (%): Table 3
Description: Meth A tumor-bearing mice (6 mice per group) were prepared according to a similar manner to that of Example 11 and the antitumor activity was compared to that obtained by single administration of the drug complexes of Examples 8 and 9 once on day 7. As a result, the degree of the antitumor activity was as follows: (Polysaccharide derivative)-Gly-Gly-Phe-Gly-NH—A′>(Polysaccharide derivative)-Gly-Gly-Gly-Phe-NH—A′>the drug compound, per se.
Meth A tumor-bearing mice (6 mice per group) were prepared according to a similar manner to that of Example 11, and the antitumor activity of the drug complex of Example 41 was examined in the cases of single administration in a similar manner to that of Example 12, and its antitumor activity was compared to that of the drug compound, per se. […]

[2] = system: mouse fibrosarcoma Meth A cells; assay: as above; assay type: in vivo
[3] = system: mouse fibrosarcoma Meth A cells; assay: Antitumor activity, Meth A tumor-bearing mice, injection every 4 days 4 times; settings: for Inhibition rate (%): tail vein every 4 days from day 7, tumor weight day 21; for antitumor activity (in words): compared to the drug compound, per se
Description: Meth A tumor-bearing mice were prepared (7 mice per group) by subcutaneously transplanting 1×10^6 mouse fibrosarcoma Meth A cells into the right inguinal regions of BALB/c male mice (7-week old). On day 7, the drug complex of Example 9 dissolved in distilled water for injection was injected in the tail vein of the Meth A tumor-bearing mice every 4 days 4 times. On day 21 after the transplantation, tumor masses were excised and weighed to calculate the inhibition rate of tumor growth according to the following equation: inhibition rate of tumor growth (%)=[1−(average tumor weight of the group administered with the test sample/average tumor weight of control group)]×100.

[4] = Pharmacokinetics in Meth A tumor-bearing mice; assay type: in vivo, mouse; settings: single administration, 10 mg/kg calculated as the drug compound; FIG. 24
SC-6 human gastric tumor = assay: Antitumor activity, SC-6 tumor-bearing nude mice; assay type: in vivo, mouse; settings: for Inhibition rate (%) / Numbers of died mice/mice used: single intravenous administration on day 27, nude mice
Description: (§1) SC-6 tumor-bearing nude mice (5 mice per group) were prepared by subcutaneously transplanting a piece of SC-6 human gastric tumor block into the right inguinal regions of nude mice (BALB/c-nu/nu, male).

Human lung cancer QG-90 = assay: Antitumor activity, human lung cancer QG-90-bearing nude mice; assay type: in vivo, mouse; settings: for Inhibition rate (%) / Numbers of died mice/mice used: single intravenous administration on day 16, nude mice
Description: as §1
Human lung cancer QG-90-bearing nude mice (5 mice per group) were prepared according to a similar manner to that of Example 57.

[5] = Example 60, 20 mg/kg calculated based on the drug compound, single administration, 20 mg/kg
[6] = 5 mg/kg calculated based on the drug compound, single administration on day 7
[7] = 2 mg/kg calculated based on the drug compound
[8] = 8 mg/kg calculated based on the drug compound
[9] = single intravenous administration, compared to the drug compound, per se
[10] = 1.75 mg/kg calculated based on the drug compound
[11] = 7 mg/kg calculated based on the drug compound
[12] = Example 60, 40 mg/kg calculated based on the drug compound, single administration
[13] = Example 60, 80 mg/kg calculated based on the drug compound, single administration
[14] = Example 60, 100 mg/kg calculated based on the drug compound, single administration

Compound: carboxymethyldextran polyalcohol-Gly-Gly-Gly-Phe-NH—A′ (A—NH2=DX-8951) [Example 29]
- antitumor activity (in words) [1]: high
- effective dose-range [1]: broader
- Inhibition rate (%) ([2]; Example 60, 5 mg/kg calculated based on the drug compound, single administration): 79%
- Inhibition rate (%) ([2]; Example 60, 10 mg/kg calculated based on the drug compound, single administration): 89%
- Inhibition rate (%) [2, 5]: 99%
- Inhibition rate (%) ([2]; Example 60, 30 mg/kg calculated based on the drug compound, single administration): 99%

Compound: carboxymethyldextran polyalcohol-Gly-Gly-Phe-Gly-NH—A′ (A—NH2=DX-8951) [Example 9]
- Inhibition rate (%) [1, 6]: 98%
- Inhibition rate (%) ([2]; Table 3, 2.5 mg/kg calculated based on the drug compound, single administration on day 7): 87%
- Inhibition rate (%) ([3]; dose 0.35 mg/kg × 4 calculated based on the drug compound): 41%
- Inhibition rate (%) ([3]; dose 0.7 mg/kg × 4 calculated based on the drug compound): 59%
- Inhibition rate (%) ([3]; dose 1.4 mg/kg × 4 calculated based on the drug compound): 94%
- toxicity (weight loss) ([3]; every 4 days 4 times): no toxicity
- antitumor activity (in words) ([3]; every 4 days 4 times): remarkably enhanced

Compound: carboxymethyldextran polyalcohol-Gly-Gly-Gly-Phe-NH—A′ (A—NH2=DX-8951) [Example 8]
- Inhibition rate (%) [1, 6]: 76%
- Inhibition rate (%) ([1]; 10 mg/kg calculated based on the drug compound, single administration on day 7): 85%

Compound: carboxymethyldextran polyalcohol-Gly-Gly-Phe-Gly-NH—A′ (A—NH2=DX-8951) [Example 15]
- distribution in tumor tissues [4]: high
- retention of blood level [4]: extremely long
- antitumor activity (in words) [1]: remarkably enhanced
- effective dose-range [1]: broader
- Inhibition rate (%) (SC-6 human gastric tumor; [7]): 71%
- Numbers of died mice/mice used (SC-6 human gastric tumor; [7]): 0/5
- Inhibition rate (%) (SC-6 human gastric tumor; [8]): 100%
- Numbers of died mice/mice used (SC-6 human gastric tumor; [8]): 0/5
- death due to toxicity (SC-6 human gastric tumor; single intravenous administration): no death
- antitumor activity (in words) (SC-6 human gastric tumor; [9]): higher
- Inhibition rate (%) (Human lung cancer QG-90; [10]): 97%
- Numbers of died mice/mice used (Human lung cancer QG-90; [10]): 0/5
- Inhibition rate (%) (Human lung cancer QG-90; [11]): 98%
- Numbers of died mice/mice used (Human lung cancer QG-90; [11]): 0/5
- antitumor activity (in words) (Human lung cancer QG-90; [9]): remarkably enhanced
- effective dose-range (Human lung cancer QG-90; [9]): broader
- Inhibition rate (%) ([2]; Example 56, 1.25 mg/kg calculated based on the drug compound, single administration): 83%
- Inhibition rate (%) ([2]; Example 56, 2.5 mg/kg calculated based on the drug compound, single administration): 95%
- Inhibition rate (%) ([2]; Example 56, 5 mg/kg calculated based on the drug compound, single administration): 99%
- Inhibition rate (%) ([2]; Example 56, 10 mg/kg calculated based on the drug compound, single administration): 100%

Compound: carboxymethyldextran polyalcohol-Gly-Gly-Phe-Gly-NH—A′ (A—NH2=DW-8089) [Example 41]
- antitumor activity (in words) [1]: remarkably enhanced
- effective dose-range [1]: broader
- Inhibition rate (%) ([2]; Example 59, 3.125 mg/kg calculated based on the drug compound, single administration): 61%
- Inhibition rate (%) ([2]; Example 59, 6.25 mg/kg calculated based on the drug compound, single administration): 81%
- Inhibition rate (%) ([2]; Example 59, 12.5 mg/kg calculated based on the drug compound, single administration): 95%
- Inhibition rate (%) ([2]; Example 59, 25 mg/kg calculated based on the drug compound, single administration): 99%

Compound: carboxymethyldextran polyalcohol-Gly-Gly-Phe-Gly-DXR [Example 44]
- antitumor activity (in words) [1]: remarkably enhanced
- effective dose-range [1]: broader
- Inhibition rate (%) ([2]; Example 61, 5 mg/kg calculated based on the drug compound, single administration): 76%
- Inhibition rate (%) ([2]; Example 61, 10 mg/kg calculated based on the drug compound, single administration): 87%
- Inhibition rate (%) ([2]; Example 61, 20 mg/kg calculated based on the drug compound, single administration): 96%
- Inhibition rate (%) ([2]; Example 61, 40 mg/kg calculated based on the drug compound, single administration): 96%

Compound: CC[C@@]1(O)C(=O)OCc2c1cc1n(c2=O)Cc2c-1nc1cc(F)c(C)c3c1c2[C@@H](NC(=O)CNC(=O)[C@H](Cc1ccccc1)NC(=O)CNC(=O)CN)CC3 [3′-N-(Gly-Gly-Phe-Gly)-NH—A (A—NH2=DX-8951) trifluoroacetic acid salt] (HELM PEPTIDE1{G.G.F.G.[CC[C@@]1(O)C(=O)OCc2c1cc1n(c2=O)Cc2c-1nc1cc(F)c(C)c3c1c2[C@@H](N[*:1])CC3]}$$$$V2.0)
- antitumor activity (in words) ([3]; every 4 days 4 times): not effective

Compound: carboxymethyldextran polyalcohol-Gly-Gly-Gly-Phe-NH—A′ (A—NH2=DX-8951) [Example 46]
- antitumor activity (in words) [1]: high
- effective dose-range [1]: broader
- Inhibition rate (%) [2, 5]: 75%
- Inhibition rate (%) [2, 12]: 82%
- Inhibition rate (%) [2, 13]: 92%
- Inhibition rate (%) [2, 14]: 94%

Compound: CC[C@@]1(O)C(=O)OCc2c1cc1n(c2=O)Cc2c-1nc1cc(F)c(C)c3c1c2[C@@H](N)CC3 [DX-8951, (1S,9S)-1-amino-9-ethyl-5-fluoro-2,3-dihydro-9-hydroxy-4-methyl-1H,12H-benzo[de]pyrano[3′,4′:6,7]indolizino[1,2-b]quinoline-10,13(9H,15H)-dione, reference compound]
- Inhibition rate (%) ([1]; 20 mg/kg single administration on day 7, drug compound = DX-8951): 59%
- Inhibition rate (%) ([1]; 60 mg/kg single administration on day 7, drug compound = DX-8951): 77%

Compound: α-methylcarboxymethyldextran polyalcohol-Gly-Gly-Gly-Phe-NH—A′ (A—NH2=DX-8951) [Example 47]
- antitumor activity (in words) [1]: high
- effective dose-range [1]: broader
- Inhibition rate (%) ([2]; Example 60, 20 mg/kg calculated based on the drug compound, single administration): 75%
- Inhibition rate (%) [2, 12]: 97%
- Inhibition rate (%) [2, 13]: 94%
- Inhibition rate (%) [2, 14]: 96%
